Test results taken from ChEMBL document CHEMBL1147331, “Cytotoxic and antimalarial bisbenzylisoquinoline alkaloids from Stephania erecta” (J Nat Prod, 1993).
In brackets after ≈: the same amount, converted by molar mass.

How the values were obtained:
[1] = Cytotoxicity against human ZR-75-1 cells after 3 days by sulforhodamine B assay; format: cell-based; conditions: read-out: ED50
[2] = Selectivity index, ratio of ED50 for human BCA1 cells to ED50 for chloroquine-resistant Plasmodium falciparum W2; format: toxicity, cell-based; conditions: read-out: Ratio ED50
[3] = Selectivity index, ratio of ED50 for human LUC1 cells to ED50 for chloroquine-resistant Plasmodium falciparum W2; format: toxicity, cell-based; conditions: read-out: Ratio ED50
[4] = Selectivity index, ratio of ED50 for human ZR-75-1 cells to ED50 for chloroquine-sensitive Plasmodium falciparum D6; format: toxicity, cell-based; conditions: read-out: Ratio ED50
in vitro [5] = conditions: mouse, P388 cells
Description: Selectivity index, ratio of ED50 for mice (Mus musculus) P388 cells to ED50 for chloroquine-sensitive Plasmodium falciparum D6

Plasmodium falciparum [6] = assay: Antimalarial activity after 24 hrs against chloroquine-resistant Plasmodium falciparum W2 infected type A+ human erythrocytes by [3H]hypoxanthine uptake; format: functional; conditions: read-out: ED50 (the source's name)
[7] = Cytotoxicity against human KBV1 cells after 3 days by sulforhodamine B assay; format: cell-based, KB-V1; conditions: read-out: ED50
Plasmodium falciparum [8] = assay: Antimalarial activity after 24 hrs against chloroquine-sensitive Plasmodium falciparum D6 infected type A+ human erythrocytes by [3H]hypoxanthine uptake; format: functional; conditions: read-out: ED50 (the source's name)
[9] = Cytotoxicity against human KB cells after 3 days by sulforhodamine B assay; format: cell-based; conditions: read-out: ED50
[10] = Selectivity index, ratio of ED50 for human HT1080 cells to ED50 for chloroquine-resistant Plasmodium falciparum W2; format: toxicity, cell-based, HT-1080; conditions: read-out: Ratio ED50
[11] = Selectivity index, ratio of ED50 for human MEL2 cells to ED50 for chloroquine-resistant Plasmodium falciparum W2; format: toxicity, cell-based; conditions: read-out: Ratio ED50
[12] = Selectivity index, ratio of ED50 for human LNCaP cells to ED50 for chloroquine-resistant Plasmodium falciparum W2; format: toxicity, cell-based; conditions: read-out: Ratio ED50
[13] = Selectivity index, ratio of ED50 for human KB-V1 cells to ED50 for chloroquine-sensitive Plasmodium falciparum D6; format: toxicity, cell-based; conditions: read-out: Ratio ED50
[14] = Selectivity index, ratio of ED50 for human LUC1 cells to ED50 for chloroquine-sensitive Plasmodium falciparum D6; format: toxicity, cell-based; conditions: read-out: Ratio ED50
[15] = Selectivity index, ratio of ED50 for human KB cells to ED50 for chloroquine-resistant Plasmodium falciparum W2; format: toxicity, cell-based; conditions: read-out: Ratio ED50
in vitro [16] = conditions: human, A431 cells
Description: Selectivity index, ratio of ED50 for human A431 cells to ED50 for chloroquine-sensitive Plasmodium falciparum D6

[17] = Cytotoxicity against human SK-MEL-2 cells after 3 days by sulforhodamine B assay; format: cell-based; conditions: read-out: ED50
in vitro [18] = conditions: human, A431 cells; remark: listed apart in the source
Description: Selectivity index, ratio of ED50 for human A431 cells to ED50 for chloroquine-resistant Plasmodium falciparum W2

[19] = Cytotoxicity against human LNCAP cells after 3 days by sulforhodamine B assay; format: cell-based; conditions: read-out: ED50
[20] = Cytotoxicity against human Col1 cells after 3 days by sulforhodamine B assay; format: cell-based; conditions: read-out: ED50
[21] = Selectivity index, ratio of ED50 for human BCA1 cells to ED50 for chloroquine-sensitive Plasmodium falciparum D6; format: toxicity, cell-based; conditions: read-out: Ratio ED50
[22] = Cytotoxicity against human LUC1 cells after 3 days by sulforhodamine B assay; format: cell-based; conditions: read-out: ED50
[23] = Selectivity index, ratio of ED50 for human KB-V1 cells to ED50 for chloroquine-resistant Plasmodium falciparum W2; format: toxicity, cell-based; conditions: read-out: Ratio ED50
[24] = Cytotoxicity against mouse P388 cells after 2 days by sulforhodamine B assay; format: cell-based; conditions: read-out: ED50
[25] = Selectivity index, ratio of ED50 for human ZR-75-1 cells to ED50 for chloroquine-resistant Plasmodium falciparum W2; format: toxicity, cell-based; conditions: read-out: Ratio ED50
[26] = Selectivity index, ratio of ED50 for human COL1 cells to ED50 for chloroquine-resistant Plasmodium falciparum W2; format: toxicity, cell-based; conditions: read-out: Ratio ED50
[27] = Cytotoxicity against human HT1080 cells after 3 days by sulforhodamine B assay; format: cell-based, HT-1080; conditions: read-out: ED50
[28] = Selectivity index, ratio of ED50 for human MEL2 cells to ED50 for chloroquine-sensitive Plasmodium falciparum D6; format: toxicity, cell-based; conditions: read-out: Ratio ED50
in vitro [29] = conditions: mouse, P388 cells; remark: listed apart in the source
Description: Selectivity index, ratio of ED50 for mice (Mus musculus) P388 cells to ED50 for chloroquine-resistant Plasmodium falciparum W2

[30] = Selectivity index, ratio of ED50 for human KB cells to ED50 for chloroquine-sensitive Plasmodium falciparum D6; format: toxicity, cell-based; conditions: read-out: Ratio ED50
[31] = Selectivity index, ratio of ED50 for human COL1 cells to ED50 for chloroquine-sensitive Plasmodium falciparum D6; format: toxicity, cell-based; conditions: read-out: Ratio ED50
[32] = Cytotoxicity against human BCA1 cells after 3 days by sulforhodamine B assay; format: cell-based; conditions: read-out: ED50
[33] = Selectivity index, ratio of ED50 for human LNCaP cells to ED50 for chloroquine-sensitive Plasmodium falciparum D6; format: toxicity, cell-based; conditions: read-out: Ratio ED50
[34] = Selectivity index, ratio of ED50 for human HT1080 cells to ED50 for chloroquine-sensitive Plasmodium falciparum D6; format: toxicity, cell-based, HT-1080; conditions: read-out: Ratio ED50
[35] = Cytotoxicity against human A431 cells after 3 days by sulforhodamine B assay; format: cell-based, A-431; conditions: read-out: ED50

SMILES | CC50 at 72 h [1] | selectivity ratio [2] | selectivity ratio [3] | selectivity ratio [4] | selectivity ratio (in vitro [5]) | EC50 (Plasmodium falciparum [6]) | CC50 at 72 h [7] | EC50 (Plasmodium falciparum [8]) | CC50 at 72 h [9] | selectivity ratio [10] | selectivity ratio [11] | selectivity ratio [12] | selectivity ratio [13] | selectivity ratio [14] | selectivity ratio [15] | selectivity ratio (in vitro [16]) | CC50 at 72 h [17] | selectivity ratio (in vitro [18]) | CC50 at 72 h [19] | CC50 at 72 h [20] | other results
COc1ccc2cc1Oc1ccc(cc1)C[C@H]1c3c(cc4c(c3Oc3cc5c(cc3OC)CCN(C)[C@@H]5C2)OCO4)CCN1C [CEPHARANTHINE] | 1 µg/mL (≈ 1.65 µM) | 16 | 25 | 7 | 2 | 0.295 µg/mL (≈ 0.486 µM) | 0.9 µg/mL (≈ 1.48 µM) | 0.14 µg/mL (≈ 0.231 µM) | 5.9 µg/mL (≈ 9.72 µM) | 21 | 49 | 19 | 6 | 52 | 20 | 15 | 14.5 µg/mL (≈ 23.9 µM) | 7 | 5.6 µg/mL (≈ 9.23 µM) | 9 µg/mL (≈ 14.8 µM) | selectivity ratio [21]: 34; CC50 at 72 h [22]: 8.8 µg/mL (≈ 14.5 µM); selectivity ratio [23]: 3; CC50 at 48 h [24]: 0.3 µg/mL (≈ 0.494 µM); selectivity ratio [25]: 3; selectivity ratio [26]: 31; CC50 at 72 h [27]: 6.1 µg/mL (≈ 10.1 µM); selectivity ratio [28]: 103; selectivity ratio (in vitro [29]): 1; selectivity ratio [30]: 42; selectivity ratio [31]: 64; CC50 at 72 h [32]: 4.7 µg/mL (≈ 7.75 µM); selectivity ratio [33]: 40; selectivity ratio [34]: 44; CC50 at 72 h [35]: 2.1 µg/mL (≈ 3.46 µM)
COc1ccc2cc1Oc1ccc(cc1)C[C@H]1c3c(cc(OC)c(O)c3Oc3cc4c(cc3OC)CCN(C)[C@@H]4C2)CCN1C [HOMOAROMOLINE] | 1.2 µg/mL (≈ 1.97 µM) | 13 | 34 | 19 | 35 | 0.288 µg/mL (≈ 0.474 µM) | 3.1 µg/mL (≈ 5.09 µM) | 0.105 µg/mL (≈ 0.172 µM) | 6.3 µg/mL (≈ 10.3 µM) | 31 | 31 | 12 | 30 | 93 | 22 | 85 | 9 µg/mL (≈ 14.8 µM) | 31 | 3.4 µg/mL (≈ 5.59 µM) | 10 µg/mL (≈ 16.4 µM) | selectivity ratio [21]: 34; CC50 at 72 h [22]: 8.6 µg/mL (≈ 14.1 µM); selectivity ratio [23]: 11; CC50 at 48 h [24]: 3.7 µg/mL (≈ 6.08 µM); selectivity ratio [25]: 7; selectivity ratio [26]: 35; CC50 at 72 h [27]: 9 µg/mL (≈ 14.8 µM); selectivity ratio [28]: 86; selectivity ratio (in vitro [29]): 13; selectivity ratio [30]: 60; selectivity ratio [31]: 96; CC50 at 72 h [32]: 3.6 µg/mL (≈ 5.91 µM); selectivity ratio [33]: 33; selectivity ratio [34]: 86; CC50 at 72 h [35]: 8.9 µg/mL (≈ 14.6 µM)
COc1ccc2cc1Oc1ccc(cc1)C[C@H]1c3c(cc(OC)c(OC)c3Oc3cc4c(cc3OC)CCN(C)[C@@H]4C2)CCN1C [OBABERINE] | 4 µg/mL (≈ 6.42 µM) | 21 | 45 | 17 | 18 | 0.216 µg/mL (≈ 0.347 µM) | 2.6 µg/mL (≈ 4.17 µM) | 0.231 µg/mL (≈ 0.371 µM) | 8.6 µg/mL (≈ 13.8 µM) | 48 | 93 | 23 | 11 | 42 | 40 | 38 | 20 µg/mL (≈ 32.1 µM) | 40 | 5 µg/mL (≈ 8.03 µM) | 10.8 µg/mL (≈ 17.3 µM) | selectivity ratio [21]: 20; CC50 at 72 h [22]: 9.7 µg/mL (≈ 15.6 µM); selectivity ratio [23]: 12; CC50 at 48 h [24]: 4.1 µg/mL (≈ 6.58 µM); selectivity ratio [25]: 19; selectivity ratio [26]: 50; CC50 at 72 h [27]: 10.4 µg/mL (≈ 16.7 µM); selectivity ratio [28]: 87; selectivity ratio (in vitro [29]): 19; selectivity ratio [30]: 37; selectivity ratio [31]: 47; CC50 at 72 h [32]: 4.6 µg/mL (≈ 7.39 µM); selectivity ratio [33]: 22; selectivity ratio [34]: 45; CC50 at 72 h [35]: 8.7 µg/mL (≈ 14 µM)
C=C[C@H]1CN2CC[C@H]1C[C@H]2[C@H](O)c1ccnc2ccc(OC)cc12 [QUININE] | > 20 µg/mL | 649 | 649 | > 2630 | > 658 | 0.0308 µg/mL (≈ 0.0949 µM) | 5.6 µg/mL (≈ 17.3 µM) | 0.0076 µg/mL (≈ 0.0234 µM) | > 20 µg/mL | 649 | 649 | 649 | 737 | > 2630 | 649 | > 2630 | > 20 µg/mL | 649 | > 20 µg/mL | > 20 µg/mL | selectivity ratio [21]: > 2630; CC50 at 72 h [22]: > 20 µg/mL; selectivity ratio [23]: 182; CC50 at 48 h [24]: > 5 µg/mL; selectivity ratio [25]: 649; selectivity ratio [26]: 649; CC50 at 72 h [27]: > 20 µg/mL; selectivity ratio [28]: > 2630; selectivity ratio (in vitro [29]): > 658; selectivity ratio [30]: > 2630; selectivity ratio [31]: > 2630; CC50 at 72 h [32]: > 20 µg/mL; selectivity ratio [33]: > 2630; selectivity ratio [34]: > 2630; CC50 at 72 h [35]: > 20 µg/mL
